# Results published in article PMC7961380, “A Systematic Study of the In Vitro Pharmacokinetics and Estimated Human In Vivo Clearance of Indole and Indazole-3-Carboxamide Synthetic Cannabinoid Receptor Agonists Detected on the Illicit Drug Market” (Molecules, 2021).
# Like-named read-outs stand apart in the source and are kept apart here.
# Key:
# [1] = Metabolic stability, pooled human cryopreserved hepatocyte incubations; details: human, hepatocytes; for CLint scaled at 0.5 µM: Intrinsic clearance, pHHeps, alternative hepatocyte cell density 99x10^6 hepatocytes per gram liver; for half-life at 0.5 µM: T1/2 (min), pHHeps 0.25 million cells mL^−1, 0.5 µM, 37 °C, n ≥ 3 ± SD
# [2] = tested on: pooled human cryopreserved hepatocytes (pHHeps); experiment: as above
# [3] = Metabolic stability, pooled human liver microsome incubations; details: for CLint scaled at 0.5 µM / half-life at 0.5 µM: human, microsomes; for CLint scaled at 0.5 µM: pH 7.4, Intrinsic clearance; for half-life at 0.5 µM: pH 7.4, T1/2 (min), pHLM 0.5 mg mL^−1, 0.5 µM, NADPH, 37 °C; for half-life at 0.5 µM / Microsomal Intrinsic Clearance, CLint micr: n ≥ 3 ± SD
# [4] = Short-term plasma stability with and without esterase inhibitors; details: human, pH 7.4, Parent Compound Remaining (%), 3 h, 37 °C
# [5] = Plasma protein binding by equilibrium dialysis; type: in vitro ADME, human; details: 37 °C; for fraction unbound at 5 h, 10 µg mL^−1: human, pooled human plasma, pH 7.4, equilibrium dialysis 5 h
# Procedure: Plasma protein binding was assessed by equilibrium dialysis in a 96-well dialysis block (HTDialysis, Ledyard, CT, USA). Dialysis membranes (12–14 kDa) were soaked in deionised water for at least 60 min. Membranes were soaked overnight at 4 °C in ethanol:water 20:80% v/v and then rinsed with deionised water immediately prior to use. […] Spiked plasma (150 µL) was dialysed against isotonic phosphate buffer (pH 7.4) (150 µL) for 5 h at 37 °C with shaking at 100 rpm. Thermal degradation controls for each test compound were kept at 37 °C and 4 °C. Blank control plasma and buffer were included in the incubation. Following incubation, dialysed plasma samples and thermal degradation controls (50 µL) were added to drug-free buffer (50 µL), and dialysed buffer samples (50 µL) were added to drug-free plasma (50 µL). […] Supernatant (150 µL) was added to 50 µL deionised water and samples were analysed by UPLC-MS/MS as described above. Dialysed buffer from each well was tested for protein contamination using BCA protein assay reagent to determine whether membranes had been compromised.
# Bu = Analyte/IS ratio determined in buffer side (2) Fraction unbound, fu=(100−% bound)/100
# [6] = pHLM, alternative microsomal scaling factor 32 mg microsomal protein per gram liver
# [7] = pHLM, alternative microsomal scaling factor 45 mg microsomal protein per gram liver
# [8] = Esterase Inhibitors, pH 7.4, BNPP and PMSF 500 µM each
# [9] = plasma, No Esterase Inhibitors, pH 7.4, pooled human plasma
# [10] = plasma, read-out: Fraction Unbound (fu)
# [11] = pHHeps, 99x10^6 hepatocytes per gram liver
# [12] = pHLM, scaling factor 32 mg microsomal protein per gram liver
Structure (SMILES),CLint scaled at 0.5 µM [1] [mL/min/kg],half-life at 0.5 µM [1] [min],"% parent compound remaining, Average ([2]; pHHeps, 3 min) [%]","% parent compound remaining, Average ([2]; pHHeps, 6 min) [%]","% parent compound remaining, Average ([2]; pHHeps, 9 min) [%]","% parent compound remaining, Average ([2]; pHHeps, 15 min) [%]","% parent compound remaining, Average ([2]; pHHeps, 30 min) [%]","% parent compound remaining, Average ([2]; pHHeps, 45 min) [%]","% parent compound remaining, Average ([2]; pHHeps, 60 min) [%]","CLint scaled at 0.5 µM [3, 6] [mL/min/kg]","CLint scaled at 0.5 µM [3, 7] [mL/min/kg]",half-life at 0.5 µM [3] [min],"% parent compound remaining, Average ([3]; pHLM, 3 min) [%]","% parent compound remaining, Average ([3]; pHLM, 6 min) [%]","% parent compound remaining, Average ([3]; pHLM, 9 min) [%]","% parent compound remaining, Average ([3]; pHLM, 15 min) [%]","% parent compound remaining, Average ([3]; pHLM, 30 min) [%]","Microsomal Intrinsic Clearance, CLint micr ([3]; pHLM)","remaining at 3 h, 5 µM [4, 8] [%]","remaining at 3 h, 5 µM [4, 9] [%]",further results
COC(=O)[C@H](NC(=O)c1nn(Cc2ccc(F)cc2)c2ccccc12)C(C)(C)C [(R)-MDMB-FUBINACA (6)],221,32 ± 5.4,93.0,82.9,77.6,70.2,53.1,57.7,41.1,58.2,81.8 ± 10.5,20 ± 2.5,77.3,75.0,70.2,57.2,33.3,0.071 ± 0.009 mL min^−1 mg Microsomal Protein^−1,–,–,–
"COC(=O)[C@@H](NC(=O)c1nn(CCCCF)c2ccccc12)C(C)(C)C [(S)-4F-MDMB-BINACA (4), methyl 2-[1-(4-fluorobutyl)-1H-indazole-3-carboxamido]-3,3-dimethylbutanoate]",–,–,82.3,73.7,69.2,53.9,25.8,12.5,6.2,118,165,9.9 ± 1.9,74.9,63.6,50.4,32.7,17.0,0.143 ± 0.025 mL min^−1 mg Microsomal Protein^−1,96 ± 2.9,93.1 ± 5.1,"PPB (%) ([5]; equilibrium dialysis 5 h, 10 µg mL^−1): 93.9 ± 0.28%; fraction unbound at 5 h, 10 µg mL^−1 [5, 10]: 0.061 ± 0.0028; Predicted In Vivo Hepatic Clearance, CLH ([2]; from pHHeps CLint, well-stirred model with plasma fu, Q 21 mL min^−1 kg^−1): 12.08 ± 0.23 mL/min/kg; Hepatic extraction ratio, EH ([2]; from pHHeps incubations): 0.58 ± 0.011; T1/2 ([2]; pHHeps 0.25 million cells mL^−1, 0.5 µM, 37 °C, n ≥ 3 ± SD): 16 ± 0.74 min; Hepatic extraction ratio, EH [2, 11]: 0.56 ± 0.011; Predicted in vivo hepatic clearance, CLH [2, 11]: 11.68 ± 0.24 mL/min/kg; Intrinsic clearance, CLint ([2]; pHHeps, alternative hepatocyte cell density 99x10^6 hepatocytes per gram liver): 432 ± 20.0 mL/min/kg; Predicted In Vivo Hepatic Clearance, CLH ([3]; from pHLM CLint, well-stirred model with plasma fu, Q 21 mL min^−1 kg^−1): 7.51 ± 0.88 mL/min/kg; Hepatic extraction ratio, EH ([3]; from pHLM incubations): 0.36 ± 0.042; Hepatic extraction ratio, EH [3, 12]: 0.25 ± 0.034; Predicted in vivo hepatic clearance, CLH [3, 12]: 5.33 mL/min/kg; Predicted in vivo hepatic clearance, CLH ([3]; pHLM, scaling factor 45 mg microsomal protein per gram liver): 6.78 mL/min/kg"
"CC(C)[C@H](NC(=O)c1nn(CC2CCCCC2)c2ccccc12)C(N)=O [(S)-AB-[…] (11), N-[1-amino-3-methyl-1-oxobutan-2-yl]-1-(cyclohexylmethyl)-1H-indazole-3-carboxamide]",194,39 ± 8.8,–,–,–,–,–,–,–,42.1,59.2,27 ± 2.9,–,–,–,–,–,–,97.9 ± 7,98.2 ± 7.2,"fraction unbound at 5 h, 10 µg mL^−1 ([5]; 10 µg mL^−1, read-out: PPB (%) (converted)): 0.028; fraction unbound at 5 h, 10 µg mL^−1 [5, 10]: 0.028 ± 0.0219"
